Assay results: ChEMBL document CHEMBL4825659, “Terpenoids from Chinese Liverworts Scapania spp” (J Nat Prod, 2021)
Calls of active or inactive are those of the source. No cut-off for these calls is given here.

Legend:
[1] = Cytotoxicity against mouse Hepa1c1c7 cells incubated for 24 hrs by MTT based assay; assay type: functional, cell-based; conditions: Hepa-1c1c7, 24 h
[2] = biological target: NAD(P)H dehydrogenase [quinone] 1 (Mus musculus) (UniProt Q64669); experiment: Induction of quinone reductase activity in mouse Hepa1c1c7 cells at 50 uM incubated for 24 hrs by MTT based assay relative to control; assay type: cell-based
NAD(P)H dehydrogenase [quinone] 1 (Mus musculus), sequence (Q64669 whole entry): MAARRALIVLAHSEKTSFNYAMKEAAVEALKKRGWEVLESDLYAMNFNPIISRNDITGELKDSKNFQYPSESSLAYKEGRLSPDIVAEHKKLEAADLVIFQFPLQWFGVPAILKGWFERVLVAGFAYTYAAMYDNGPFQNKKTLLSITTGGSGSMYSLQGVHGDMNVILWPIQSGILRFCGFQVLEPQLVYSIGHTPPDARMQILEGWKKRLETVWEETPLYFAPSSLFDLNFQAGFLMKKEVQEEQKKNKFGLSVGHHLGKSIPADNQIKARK

Activity [2]	Activity ([2]; filed as activator)	Compound	IC50 [1]
inactive		C[C@H]1C[C@H]2O[C@@]3(C)[C@@H](O)CCC45O[C@@](C6=CC(=O)OC6O)(C[C@]14C)OC[C@@]253 (some centres undefined)	> 50 µM
inactive		CC1(C)CC[C@@H](O)[C@]2(C)[C@@H]1C(=O)C[C@@]13C[C@H]4[C@@H](C(=O)[C@H]12)[C@]4(C)C3	> 50 µM
	Active	CO[C@]1(C2=CC(=O)OC2O)C[C@]2(C)[C@@H](C)C[C@@H](OC(C)=O)[C@]3(COC(C)=O)C2(CC[C@@H]2O[C@@]23C)O1 (some centres undefined)	> 50 µM

Second part, the molecule before the results:

Compound	Activity [2]	Activity ([2]; filed as activator)	IC50 [1]
CC(=O)O[C@@H]1C[C@H](C)[C@@]2(C)C[C@@]3(c4ccoc4)OC[C@]14C2(CC[C@@H]1O[C@@]14C)O3	inactive		> 50 µM
C[C@H]1C[C@H]2O[C@@]3(C)[C@@H](O)CCC45O[C@@](c6ccoc6)(C[C@]14C)OC[C@@]253	inactive		> 50 µM
CC(=O)O[C@@H]1C[C@H](C)[C@@]2(C)C[C@@]3(C4=CC(O)OC4=O)OC[C@]14C2(CC[C@@H]1O[C@@]14C)O3 (some centres undefined)		Active	> 50 µM
CC(=O)O[C@@H]1C[C@H](C)[C@@]2(C)C[C@@]3(C4=CC(=O)OC4O)OC[C@]14C2(CC[C@@H]1O[C@@]14C)O3 (some centres undefined)		Active	> 50 µM
